Measurements from patent US11773099B2, “Compounds and their methods of use” (Praxis Precision Medicines, Inc., priority 2019, dated 2023).

Molecular target: T1, human Nav1.6 (hNav1.6) (Homo sapiens, UniProt Q9UQD0)
T1 construct: expressed in transfected cells; host or cells: HEK-293 (G418 selection)
Test: Modulation of late sodium current (INaL), PatchXpress electrophysiology
Type: cell-based
Conditions: HEK293; compound at 1 μM; HEK-293 cells expressing recombinant hNav1.6; late current evoked by 300 nM ATX-II; read-out: INaL v1.6 (1 μM, % Inhibition)
Description: Functional characterization of exemplary compounds to modulate INaL expressed by the Nav1.6 voltage-gated sodium channel was accomplished using the PatchXpress™ high throughput electrophysiology platform (Molecular Devices, Sunnyvale, Calif.). HEK-293 cells expressing recombinant, human Nav1.6 (hNav1.6) were grown in DMEM/high-glucose Dulbecco's modified, 10% FBS, 2 mM sodium pyruvate, 10 mM HEPES and 400 μg/mL G418. Cells were grown to 50%-80% confluency prior to harvesting. Trypsinized cells were washed, allowed to recover for 1 hour and then resuspended in extracellular recording solution at a concentration of 1×10^6 cells/ml. The onboard liquid handling facility of the PatchXpress was used for dispensing cells and applying test compounds. Nav late currents were evoked by the application of 300 nM ATX-II. INaL was evoked by depolarizing pulses to 0 mV for 200 ms from a non-inactivating holding potential (e.g., −120 mV) at a frequency of 0.1 Hz. INaL amplitude and stability were determined by analyzing the mean current amplitude over the final 20 ms of the test pulse. Following steady state block with exemplary compounds (e.g., as described herein), a Na^+ free solution containing an impermeant cation (e.g., Choline or NDMG) was added to confirm the identify of the sodium current. Percent steady-state inhibition of INaL was calculated as: [(INaL_compound)/(INaL_control)]*100, where INaL_compound and INaL_control represent INaL recorded in the presence or absence of compound, respectively.
Results from this assay relating to percent inhibition of INaL at hNav1.6 (measured using procedure similar to described above but using HEK-293 cells expressing recombinant, human Nav1.6 (hNav1.6) at 1 μM are summarized in Table 1 below. In this table, “A” indicates inhibition of less than 30%; “B” indicates inhibition of between about 30% to about 70%; and “C” indicates inhibition of greater than 70%.

T1 sequence (Q9UQD0 whole entry): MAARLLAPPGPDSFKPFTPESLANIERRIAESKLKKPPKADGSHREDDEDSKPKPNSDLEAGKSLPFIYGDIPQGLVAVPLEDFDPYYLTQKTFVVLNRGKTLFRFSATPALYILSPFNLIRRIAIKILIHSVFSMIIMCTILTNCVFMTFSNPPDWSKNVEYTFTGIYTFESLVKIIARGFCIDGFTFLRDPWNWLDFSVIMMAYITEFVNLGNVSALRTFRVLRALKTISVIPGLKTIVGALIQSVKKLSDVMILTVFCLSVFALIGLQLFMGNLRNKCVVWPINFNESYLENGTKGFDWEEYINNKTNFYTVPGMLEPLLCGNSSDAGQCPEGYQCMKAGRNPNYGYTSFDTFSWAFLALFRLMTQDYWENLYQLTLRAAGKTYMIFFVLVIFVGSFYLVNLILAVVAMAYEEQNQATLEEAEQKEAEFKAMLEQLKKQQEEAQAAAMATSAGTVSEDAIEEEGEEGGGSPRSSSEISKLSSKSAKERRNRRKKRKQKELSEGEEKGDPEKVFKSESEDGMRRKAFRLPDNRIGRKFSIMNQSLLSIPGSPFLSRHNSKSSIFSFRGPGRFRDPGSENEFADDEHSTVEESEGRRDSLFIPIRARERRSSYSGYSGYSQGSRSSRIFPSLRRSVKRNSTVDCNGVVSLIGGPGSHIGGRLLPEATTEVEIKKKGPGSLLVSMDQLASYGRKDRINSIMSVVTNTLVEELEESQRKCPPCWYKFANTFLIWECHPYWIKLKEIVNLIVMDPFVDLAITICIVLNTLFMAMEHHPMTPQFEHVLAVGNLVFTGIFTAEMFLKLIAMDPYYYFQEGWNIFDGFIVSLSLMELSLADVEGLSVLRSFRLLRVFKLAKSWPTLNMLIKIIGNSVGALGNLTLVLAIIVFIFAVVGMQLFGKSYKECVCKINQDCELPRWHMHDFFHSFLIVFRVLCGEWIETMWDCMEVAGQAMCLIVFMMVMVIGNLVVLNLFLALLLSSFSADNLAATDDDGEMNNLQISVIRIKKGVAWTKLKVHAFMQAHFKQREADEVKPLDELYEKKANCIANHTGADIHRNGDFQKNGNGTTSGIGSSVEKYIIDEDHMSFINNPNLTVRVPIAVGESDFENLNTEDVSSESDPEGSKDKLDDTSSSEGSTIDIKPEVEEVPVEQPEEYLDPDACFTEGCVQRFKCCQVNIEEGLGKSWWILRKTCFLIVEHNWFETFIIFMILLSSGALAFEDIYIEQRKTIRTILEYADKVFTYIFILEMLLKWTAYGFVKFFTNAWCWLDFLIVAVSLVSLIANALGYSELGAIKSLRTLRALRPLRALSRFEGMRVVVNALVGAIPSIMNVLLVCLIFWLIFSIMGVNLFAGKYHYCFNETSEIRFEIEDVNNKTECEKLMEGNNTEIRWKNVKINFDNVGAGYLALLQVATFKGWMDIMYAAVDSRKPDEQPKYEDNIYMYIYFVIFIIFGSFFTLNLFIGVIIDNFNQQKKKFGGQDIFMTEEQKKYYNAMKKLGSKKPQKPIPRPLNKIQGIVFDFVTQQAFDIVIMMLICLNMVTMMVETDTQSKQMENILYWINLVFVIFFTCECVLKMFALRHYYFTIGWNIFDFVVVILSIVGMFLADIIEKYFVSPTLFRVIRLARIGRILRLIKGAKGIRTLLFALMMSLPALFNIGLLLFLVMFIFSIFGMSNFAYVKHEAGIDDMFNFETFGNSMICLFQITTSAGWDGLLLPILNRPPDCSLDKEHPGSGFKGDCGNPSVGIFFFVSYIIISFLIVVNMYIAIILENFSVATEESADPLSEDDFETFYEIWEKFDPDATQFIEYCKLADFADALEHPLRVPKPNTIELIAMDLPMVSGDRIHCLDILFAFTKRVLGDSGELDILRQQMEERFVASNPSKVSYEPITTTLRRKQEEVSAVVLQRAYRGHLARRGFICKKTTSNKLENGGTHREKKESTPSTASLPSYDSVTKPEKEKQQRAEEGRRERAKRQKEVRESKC

| Compound | inhibition at 1 µM [%] |
| --- | --- |
| FC(F)(F)Oc1ccc(-c2ccn3cncc3c2)cc1 [Compound 1] | < 30 |
| FC(F)(F)Oc1ccc(-c2ccn3cnc(C(F)(F)F)c3c2)cc1 [Compound 2] | < 30 |
| FC(F)(F)Oc1ccc(-c2ccn3cnc(C(F)(F)F)c3n2)cc1 [Compound 4] | 30 to 70 |
| Cc1cc(OC(F)(F)F)ccc1-c1cnn2cncc2c1 [Compound 5, 3-[2-methyl-4-(trifluoromethoxy)phenyl]imidazo[1,5-b]pyridazine] | < 30 |
| Cc1cc(OC(F)(F)F)ccc1-c1cnn2cnc(C(F)(F)F)c2c1 [Compound 6] | < 30 |
| FC(F)(F)Oc1ccc(-c2cc3cncn3cn2)cc1 [Compound 7, 7-[4-(trifluoromethoxy)phenyl]imidazo[1,5-c]pyrimidine] | < 30 |
| FC(F)(F)Oc1ccc(-c2cc3c(C(F)(F)F)ncn3cn2)cc1 [Compound 8] | > 70 |
| Cc1cc(OC(F)(F)F)ccc1-c1cc2cncn2cn1 [Compound 9, 7-[2-methyl-4-(trifluoromethoxy)phenyl]imidazo[1,5-c]pyrimidine] | < 30 |
| Fc1cc(-c2cc3cncn3cn2)cnc1OCC(F)(F)F [Compound 10, 7-[5-fluoro-6-(2,2,2-trifluoroethoxy)-3-pyridyl]imidazo[1,5-c]pyrimidine] | < 30 |
| C[C@H](Oc1ncc(-c2cc3cncn3cn2)cc1F)C(F)(F)F [Compound 11, 7-[5-fluoro-6-[(1S)-2,2,2-trifluoro-1-methyl-ethoxy]-3-pyridyl]imidazo[1,5-c]pyrimidine] | 30 to 70 |
| C[C@@H](Oc1ncc(-c2cc3cncn3cn2)cc1F)C(F)(F)F [Compound 12, 7-[5-fluoro-6-[(1R)-2,2,2-trifluoro-1-methyl-ethoxy]-3-pyridyl]imidazo[1,5-c]pyrimidine] | < 30 |
| CC(C)(Oc1ncc(-c2cc3cncn3cn2)cc1F)C(F)(F)F [Compound 13, 7-[5-fluoro-6-(2,2,2-trifluoro-1,1-dimethyl-ethoxy)-3-pyridyl]imidazo[1,5-c]pyrimidine] | 30 to 70 |
| Cc1cc(OC(F)(F)F)ccc1-c1cc2c(C(F)(F)F)ncn2cn1 [Compound 14] | > 70 |
| C[C@@H](Oc1ncc(-c2cc3c(C(F)(F)F)ncn3cn2)cc1F)C(F)(F)F [Compound 15] | 30 to 70 |
| Fc1cc(-c2cc3c(C(F)(F)F)ncn3cn2)cnc1OCC(F)(F)F [Compound 16] | < 30 |
| CC(C)(Oc1ncc(-c2cc3c(C(F)(F)F)ncn3cn2)cc1F)C(F)(F)F [Compound 17] | 30 to 70 |
| C[C@H](Oc1ncc(-c2cc3c(C(F)(F)F)ncn3cn2)cc1F)C(F)(F)F [Compound 18] | 30 to 70 |
| C[C@@H](Oc1ncc(-c2cc3c(C(F)F)ncn3cn2)cc1F)C(F)(F)F [Compound 19] | < 30 |
| C[C@H](Oc1ncc(-c2cc3c(C(F)F)ncn3cn2)cc1F)C(F)(F)F [Compound 20] | < 30 |
| CC(C)(Oc1ncc(-c2cc3c(C(F)F)ncn3cn2)cc1F)C(F)(F)F [Compound 21] | 30 to 70 |
| Fc1cc(-c2cc3c(C(F)F)ncn3cn2)cnc1OCC(F)(F)F [Compound 22] | < 30 |
| Cc1cc(OC(F)(F)F)ccc1-c1cc2c(C(F)F)ncn2cn1 [Compound 23] | < 30 |
| COCc1ncn2cnc(-c3cnc(O[C@@H](C)C(F)(F)F)c(F)c3)cc12 [Compound 24] | < 30 |
| COCc1ncn2cnc(-c3cnc(O[C@H](C)C(F)(F)F)c(F)c3)cc12 [Compound 25] | > 70 |
| COCc1ncn2cnc(-c3ccc(OC(F)(F)F)cc3)cc12 [Compound 26] | 30 to 70 |
| COCc1ncn2cnc(-c3cnc(OC(C)(C)C(F)(F)F)c(F)c3)cc12 [Compound 27] | < 30 |
